According to patent US6287586A, “Pharmaceutical compositions of vanadium biguanide complexes and their use” (priority 1999, dated 2001):

Legend:
[1] = human, in vivo, cited from earlier work
[2] = system: STZ-diabetic rats; experiment: Plasma glucose lowering in STZ-diabetic rats after i.p. administration (glucose oxidase method); type: in vivo, male Wistar rats; conditions: for AUC (blood glucose): over 72 h after 0.12 mmol/kg i.p., group average; for rats with plasma glucose levels reduced to <9 mmol/L: 0.12 mmol/kg i.p. in 3% gum Arabic, STZ-diabetic rats
Protocol: Nineteen male Wistar rats weighing 190-220 g were obtained from the Animal Care Center at the University of British Columbia. Animals were acclimatized for a period of 7-14 days in our facility.
Animals were made diabetic with a single intravenous injection of streptozotocin (STZ) (Source: Sigma) at 60 mg/kg in 0.9% NaCl (1 mL/kg volume) (Source: BDH ) under light halothane (Halocarbon Laboratories) anaesthesia. The diabetic state was confirmed on the third day post-stz-administration with Ames brand Glucometer and Glucostix reading, and blood glucose levels of over 13 mM were categorized as diabetic.
On day seven post STZ-administration, the nineteen animals were divided randomly into four groups. These four groups received one of four treatments, including control. The control group received an equivalent volume of 3% gum Arabic carrier alone.
The gum arabic was prepared by dissolving 3 g of gum arabic in 100 mL of distilled water. This mixture was sealed and stored under refrigeration for 1 week before the experiment.
All drugs were injected intraperitoneally into the rats at a volume of 5 ml/kg in 3% gum Arabic. The dose of administration was 0.12 mmol/kg.
Animals were allowed free access to food.
Blood was collected from the tail into heparinized capillary tubes and centrifuged at 10,000 g for 15 minutes. Blood was collected in 50 μL aliquots in this manner prior to drug administration, and at 2, 4, 6, 8, 12, 16, 20, 24, 48 and 72 hours post administration.
The plasma was analyzed for glucose levels using Boehringer Mannheim Glucose Kits (glucose oxidase method).

[3] = withdrawn drug; cited from earlier work
[4] = system: STZ diabetic rats; conditions: cited from earlier work
[5] = Sakurai et al. (1980); cited from earlier work
[6] = system: rat adipocytes; conditions: in vitro, Nature 284:556-558 (1980); cited from earlier work

Compound: CN(C)C(=N)NC(=N)N [Metformin, 1,1-dimethylbiguanide]
- dose excreted by the kidneys ([1]; 24 h): about 90%
- oral dose excreted in the feces ([1]; po): Approximately 30%
- acute lowering of plasma glucose (in words) ([2]; IP 0.12 mmol/kg in 3% gum Arabic, over 72 hours): did not acutely lower plasma glucose levels
- AUC (blood glucose) [2]: 1572.94 mmol/L/h

Compound: [H]/N=C(/N)N/C(=N/[H])NCCc1ccccc1 [phenformin, 1-phenethylbiguanide]
- side effects (in words) [3]: serious lactic acidosis side effects

Compound: [O]=[V]([O-])([O-])[O-] [vanadate]
- elevated blood glucose (in words) ([4]; STZ rats, administered in drinking water, McNeill et al. 1985): decreased the elevated blood glucose
- depression of cardiac performance (in words) ([4]; STZ rats, drinking water, McNeill et al. 1985): prevented the depression of cardiac performance
- in vivo reduction (in words) [5]: reduced in vivo to vanadyl

Compound: [O]=[V+2] [vanadyl ion]
- stimulation of glucose oxidation (in words) [6]: insulin-like stimulation of glucose oxidation in rat adipocytes was due to the vanadyl ion

Compound: O=S(=O)([O-])[O-].[O]=[V+2] [vanadyl sulfate]
- blood glucose and blood lipids (in words) ([4]; oral, STZ diabetic rats, McNeill et al.): lowers blood glucose and blood lipids
- secondary complications of diabetes (in words) ([4]; oral, STZ diabetic rats, cataracts and cardiac dysfunction): prevents secondary complications of diabetes such as cataracts and cardiac dysfunction

Compound: Bis(N^1,N^1 -dimethylbiguanidato)oxovanadium(IV) [VO(met)2]
- rats with plasma glucose levels reduced to <9 mmol/L [2]: 40%
- AUC (blood glucose) [2]: 1362.61 mmol/L/h
- plasma glucose lowering, rat studies (in words) ([2]; rat studies, summary statement): active in lowering plasma glucose

Compound: Bis(ethylmaltolato) oxovanadium(IV) [BEOV]
- rats with plasma glucose levels reduced to <9 mmol/L [2]: 40%
- AUC (blood glucose) [2]: 1197.30 mmol/L/h
